Tests used:
corn = assay: Test C postemergence; assay type: in vivo, Zea mays
Method in brief: (§1)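 Seeds were sown in a loam soil–sand blend and sprayed preemergence with compounds formulated in a non-phytotoxic solvent mixture containing surfactant. Postemergence plants, grown in peat/vermiculite medium to 2–18 cm (1- to 4-leaf stage), received the same formulation. After 13 to 15 days in a greenhouse, injury was rated visually against controls (0 = no effect, 100 = complete control).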

chickweed = assay: Test C postemergence; assay type: in vivo, Stellaria media
Method in brief: as §1

wheat [1] = assay: Test C preemergence; assay type: in vivo, Triticum aestivum; settings: preemergence
Method in brief: as §1

barnyardgrass [2] = assay: Test B flood; assay type: in vivo, Echinochloa crus-galli; settings: 250 g ai/ha, visual rating on 0 to 100 scale (0 no effect, 100 complete control), 13 to 15 days
Method in brief: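 Visual ratings on a 0–100 scale, where 0 means no effect and 100 means complete control, were assigned by comparison with controls 13 to 15 days after treatment. Compounds went into paddy water over 2-leaf plants flooded to 3 cm.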

morningglory = assay: Test C postemergence; assay type: in vivo, Ipomoea coccinea
Method in brief: as §1

barnyardgrass [3] = assay: Test C postemergence; assay type: in vivo, Echinochloa crus-galli
Method in brief: as §1

wheat [4] = assay: Test C postemergence; assay type: in vivo, Triticum aestivum; settings: postemergence
Method in brief: as §1

velvetleaf = assay: Test C preemergence; assay type: in vivo, Abutilon theophrasti; settings: preemergence
Method in brief: as §1

lambsquarters [5] = assay: Test C postemergence; assay type: in vivo, Chenopodium album
Method in brief: as §1

kochia = assay: Test C postemergence; assay type: in vivo, Kochia scoparia
Method in brief: as §1

crabgrass, large = assay: Test A postemergence; assay type: in vivo, Digitaria sanguinalis
Method in brief: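 Seeds were sown in a loam soil–sand blend and given a directed soil spray preemergence; postemergence plants at 2–10 cm, one- to two-leaf stage, were sprayed with compound in non-phytotoxic solvent with surfactant. After about 10 days in a greenhouse, injury was visually rated against untreated controls (0 = no effect, 100 = complete control).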

foxtail, giant = assay: Test C postemergence; assay type: in vivo, Setaria faberii
Method in brief: as §1

lambsquarters [6] = assay: Test C preemergence; assay type: in vivo, Chenopodium album; settings: preemergence
Method in brief: as §1

[7] = Postemergence, 31 g ai/ha, visually evaluated after 13 to 15 days
[8] = postemergence, 62 g ai/ha, scale 0 to 100
[9] = postemergence, 250 g ai/ha, scale 0 to 100 (0 no effect, 100 complete control)
[10] = postemergence, 125 g ai/ha, scale 0 to 100, 0 no effect, 100 complete control
[11] = 31 g ai/ha, visual rating, scale 0 to 100 (0 no effect, 100 complete control), 13 to 15 days
[12] = 62 g ai/ha, scale 0 to 100 (0 no effect, 100 complete control), 13 to 15 days
[13] = 125 g ai/ha, 13 to 15 days, scale 0 to 100, 0 = no effect, 100 = complete control
[14] = 250 g ai/ha, scale 0 to 100, 0 is no effect, 100 is complete control

**Q.** For `CCNC(=O)c1cc(CC)n(Cc2cc(C(F)(F)F)nn2C)n1` [Compound 154], which “Plant response rating (scale of 0 to 100 where 0 is no effect and 100 is complete control), Corn” value (corn; [7]) is on record?
**A.** The value was 5.

**Q.** And the “Corn plant response rating” value (corn; [8])?
**A.** Its value is 5.

**Q.** What about the “Plant response rating, Corn” value (corn; [9]) of the same compound?
**A.** The value was 10.

**Q.** And the “Plant response rating, Corn” value (corn; [10])?
**A.** Its value is 10.

**Q.** What about the “Plant response rating (scale of 0 to 100 where 0 is no effect and 100 is complete control), Chickweed” value (chickweed; [7]) of the same compound?
**A.** The value was 60.

**Q.** What about the “Chickweed plant response rating” value (chickweed; [8]) of the same compound?
**A.** The value was 70.

**Q.** What about the “Plant response rating, Chickweed” value (chickweed; [9]) of the same compound?
**A.** Its value is 90.

**Q.** And the “Plant response rating, Chickweed” value (chickweed; [10])?
**A.** Its value is 60.

**Q.** And the “Wheat plant response rating” value (wheat [1]; [11])?
**A.** Its value is 0.

**Q.** And the “Wheat plant response rating” value (wheat [1]; [12])?
**A.** The value was 5.

**Q.** And the “Plant response rating, Wheat” value (wheat [1]; [13])?
**A.** Its value is 50.

**Q.** What about the “Wheat plant response rating” value (wheat [1]; [14]) of the same compound?
**A.** The value was 90.

**Q.** What about the “Plant response rating, Barnyardgrass” value (barnyardgrass [2]) of the same compound?
**A.** The value was 45.

**Q.** And the “Plant response rating (scale of 0 to 100 where 0 is no effect and 100 is complete control), Morningglory” value (morningglory; [7])?
**A.** Its value is 15.

**Q.** What about the “Morningglory plant response rating” value (morningglory; [8]) of the same compound?
**A.** Its value is 60.

**Q.** And the “Plant response rating, Morningglory” value (morningglory; [9])?
**A.** Its value is 95.

**Q.** And the “Plant response rating, Morningglory” value (morningglory; [10])?
**A.** The value was 85.

**Q.** And the “Plant response rating (scale of 0 to 100 where 0 is no effect and 100 is complete control), Barnyardgrass” value (barnyardgrass [3]; [7])?
**A.** The value was 5.

**Q.** And the “Barnyardgrass plant response rating” value (barnyardgrass [3]; [8])?
**A.** The value was 5.

**Q.** What about the “Plant response rating, Barnyardgrass” value (barnyardgrass [3]; [9]) of the same compound?
**A.** The value was 10.

**Q.** And the “Plant response rating, Barnyardgrass” value (barnyardgrass [3]; [10])?
**A.** Its value is 5.

**Q.** What about the “Plant response rating, Wheat” value (wheat [4]; 250 g ai/ha, scale 0 to 100 (0 no effect, 100 complete control)) of the same compound?
**A.** The value was 10.

**Q.** And the “Wheat plant response rating” value (wheat [4]; scale 0 to 100)?
**A.** Its value is 5.

**Q.** What about the “Velvetleaf plant response rating” value (velvetleaf; [11]) of the same compound?
**A.** Its value is 10.

**Q.** What about the “Velvetleaf plant response rating” value (velvetleaf; [12]) of the same compound?
**A.** Its value is 40.

**Q.** What about the “Plant response rating, Velvetleaf” value (velvetleaf; [13]) of the same compound?
**A.** Its value is 90.

**Q.** And the “Velvetleaf plant response rating” value (velvetleaf; [14])?
**A.** The value was 100.

**Q.** And the “Plant response rating (scale of 0 to 100 where 0 is no effect and 100 is complete control), Lambsquarters” value (lambsquarters [5]; [7])?
**A.** Its value is 40.

**Q.** And the “Lambsquarters plant response rating” value (lambsquarters [5]; [8])?
**A.** The value was 50.

**Q.** And the “Plant response rating, Lambsquarters” value (lambsquarters [5]; [9])?
**A.** The value was 75.

**Q.** What about the “Plant response rating, Lambsquarters” value (lambsquarters [5]; [10]) of the same compound?
**A.** The value was 75.

**Q.** What about the “Plant response rating (scale of 0 to 100 where 0 is no effect and 100 is complete control), Kochia” value (kochia; [7]) of the same compound?
**A.** The value was 80.

**Q.** And the “Kochia plant response rating” value (kochia; [8])?
**A.** The value was 85.

**Q.** What about the “Plant response rating, Kochia” value (kochia; [9]) of the same compound?
**A.** The value was 95.

**Q.** What about the “Plant response rating, Kochia” value (kochia; [10]) of the same compound?
**A.** Its value is 85.

**Q.** What about the “Crabgrass, Large plant response rating” value (crabgrass, large; Postemergence, 500 g ai/ha, 0 to 100 scale (0 no effect, 100 complete control)) of the same compound?
**A.** Its value is 100.

**Q.** And the “Crabgrass, Large plant response rating” value (crabgrass, large; postemergence, 125 g ai/ha, about 10 days, visual rating on 0 to 100 scale (0 no effect, 100 complete control))?
**A.** The value was 100.

**Q.** And the “Plant response rating (scale of 0 to 100 where 0 is no effect and 100 is complete control), Foxtail, Giant” value (foxtail, giant; [7])?
**A.** Its value is 5.

**Q.** What about the “Foxtail, Giant plant response rating” value (foxtail, giant; [8]) of the same compound?
**A.** The value was 5.

**Q.** And the “Plant response rating, Foxtail, Giant” value (foxtail, giant; [9])?
**A.** Its value is 10.

**Q.** And the “Plant response rating, Foxtail, Giant” value (foxtail, giant; [10])?
**A.** Its value is 5.

**Q.** And the “Lambsquarters plant response rating” value (lambsquarters [6]; [11])?
**A.** The value was 65.

**Q.** What about the “Lambsquarters plant response rating” value (lambsquarters [6]; [12]) of the same compound?
**A.** The value was 98.

**Q.** What about the “Plant response rating, Lambsquarters” value (lambsquarters [6]; [13]) of the same compound?
**A.** The value was 100.

**Q.** What about the “Lambsquarters plant response rating” value (lambsquarters [6]; [14]) of the same compound?
**A.** Its value is 98.
